Test system: Visna-Virus
Assay: Visna virus test: inhibition of virus-induced cytopathic effect in infected sheep fibroblast cell cultures
Assay type: cell-based
Design: key to Antivirale Wirkung in der Zellkultur*: 3 = kompletter antiviraler Schutzeffekt; 100% Schutz der Zellen vor der Infektion; 2 = 50% Schutzeffekt der infizierten Zellkultur; 1- 10 - 20% Schutzeffekt der infizierten Zellkultur; 0 = komplette Zerstörung der infizierten Zellkultur
Settings: for Antivirale Wirkung in der Zellkultur*: compound alone, Schafszellen
Source text: In Zellkulturen, die mit Visna-Virus infiziert sind, treten 5 bis 10 Tage nach der Infektion ausgeprägte virusinduzierte, zytopathische Effekte auf. Durch Behandlung der infizierten Zellkulturen mit den erfindungsgemäßen Kombinationen von Verbindungen der allgemeinen Formel (I) und Interferon konnte das Auftreten dieser zytopathischen Effekte verhindert werden.
Der Visna-Virus-Test wurde nach der Methode von 0. Narayan et al., Journal of Infectious Diseases 135, 5, 1977, 800 - 806 durchgeführt. Dazu wurden die erfindungsgemäßen Kombinationen von Verbindungen der allgemeinen Formel (I) und Interferon im Kulturmedium zu nicht zytotoxischen Konzentrationen verdünnt, und zwar in 96er Microtiterplatten. Anschließend wurden zu jeder Verdünnung der Wirkstoffe Schafsfibroblastenzellen (5 x 10⁴ Zellen pro Napf) in Kulturmedium zugeführt.
Jedes Näpfchen erhielt dann 50 µl einer Visna-Viruslösung mit einem Titer von ca. 2,5 x 10⁴ TCID₅₀ (TCID = tissue culture infectious dosis). Diese Virusdosis entspricht einer MOI (Multiplizität der Infektion) von ca. 0,05.
Unter diesen Infektionsbedingungen resultierte zwischen Tag 5 und Tag 10 in einer Infektionskontrolle ohne Substanz ein virusinduzierter, zytopathischer Effekt. Die infizierten und behandelten Zellen und die Kontrollzellen wurden 7 Tage bei 37°C, 5% CO₂ inkubiert.
Bei Auftreten des virusinduzierten zytopathogenen Effektes in der unbehandelten Viruskontrolle wurden die Kulturen mit Formalin fixiert und anschließend mit einer Giemsa-Lösung gefärbt. Die inhibitorische Konzentration (IC₅₀) wurde mikroskopisch als die Konzentration ermittelt, bei der der zytopathische Effekt um 50% gehemmt wurde, im Vergleich zur unbehandelten Viruskontrolle, die 100% Zellzerstörung aufwies.

CC(C)c1ccc(NC(=O)CCN2C[C@@H](O)[C@@H](O)[C@H](O)[C@H]2CO)cc1 [3-(1,5-Didesoxy-1,5-imino-D-mannit-N-yl)-propionsäure-4-isopropyl-anilid]
Reduktion der Konzentration der Einzelkomponenten um den Faktor (by combining both active substances, versus the single component alone): 30
Antivirale Wirkung in der Zellkultur* (Konzentration der Testsubstanz 0,03 mg/ml): 2 (2 = 50% Schutzeffekt der infizierten Zellkultur)
Antivirale Wirkung in der Zellkultur* (Konzentration der Testsubstanz 0,5 mg/ml): 3 (3 = kompletter antiviraler Schutzeffekt; 100% Schutz der Zellen vor der Infektion)
Antivirale Wirkung in der Zellkultur* (Konzentration der Testsubstanz 0,06 mg/ml): 3 (3 = kompletter antiviraler Schutzeffekt; 100% Schutz der Zellen vor der Infektion)
Antivirale Wirkung in der Zellkultur* (Konzentration der Testsubstanz 0,25 mg/ml): 3 (3 = kompletter antiviraler Schutzeffekt; 100% Schutz der Zellen vor der Infektion)
Antivirale Wirkung in der Zellkultur* (Konzentration der Testsubstanz 0,001 mg/ml): 0
Antivirale Wirkung in der Zellkultur* (Konzentration der Testsubstanz 1 mg/ml): 3 (3 = kompletter antiviraler Schutzeffekt; 100% Schutz der Zellen vor der Infektion)
Antivirale Wirkung in der Zellkultur* (Konzentration der Testsubstanz 0,003 mg/ml): 0
Antivirale Wirkung in der Zellkultur* (Konzentration der Testsubstanz 0,007 mg/ml): 0
Antivirale Wirkung in der Zellkultur* (Konzentration der Testsubstanz 0,015 mg/ml): 1 (1- 10 - 20% Schutzeffekt der infizierten Zellkultur)
Antivirale Wirkung in der Zellkultur* (Konzentration der Testsubstanz 0,125 mg/ml): 3 (3 = kompletter antiviraler Schutzeffekt; 100% Schutz der Zellen vor der Infektion)
